Assay results published in ChEMBL document CHEMBL1130926, “Novel H3 receptor antagonists. Sulfonamide homologs of histamine” (Bioorg Med Chem Lett, 1998).
Calls of active or inactive are those of the source. The calls are words filed in the database; no cut-off is given here.

Tests used:
Histamine H1 receptor = Histamine H1 receptor (Cavia porcellus, UniProt P31389); test: Evaluated for the percent binding affinity against H1 receptor by an H1 histamine-mediated bronchospasm; design: concentration or dose not given beside the values
Histamine H3 receptor [1] = target: T1, Histamine H3 receptor (Cavia porcellus, UniProt Q9JI35); test: H3 -antagonist potency determined in electrically stimulated guinea-pig ileum; assay type: functional, tissue-based; conditions: read-out: pA2 (converted)
Histamine H3 receptor [2] = target: T1, Histamine H3 receptor; test: Inhibition of [3H]Nalpha-methylhistamine binding to H3 receptor in guinea-pig brain membranes; assay type: cell membranes, Membrane
[3] = target: Histamine H3 receptor (Cavia porcellus) (UniProt Q9JI35); test: Evaluated in vivo for its H3 receptor antagonist activity in the CNS hypertension model; assay type: functional, organism-based
[4] = target: Histamine H3 receptor (Cavia porcellus) (UniProt Q9JI35); test: Evaluated in vivo for its H3 receptor antagonist activity in the CNS hypertension model at 3 mg/kg dose; assay type: functional, organism-based; design: dose 3 mg/kg
Cavia porcellus = test: Compound was evaluated in vivo for its H3 receptor antagonist activity in the CNS hypertension model; NA: Not active; assay type: functional, organism-based

Chain of Histamine H1 receptor (P31389 whole entry): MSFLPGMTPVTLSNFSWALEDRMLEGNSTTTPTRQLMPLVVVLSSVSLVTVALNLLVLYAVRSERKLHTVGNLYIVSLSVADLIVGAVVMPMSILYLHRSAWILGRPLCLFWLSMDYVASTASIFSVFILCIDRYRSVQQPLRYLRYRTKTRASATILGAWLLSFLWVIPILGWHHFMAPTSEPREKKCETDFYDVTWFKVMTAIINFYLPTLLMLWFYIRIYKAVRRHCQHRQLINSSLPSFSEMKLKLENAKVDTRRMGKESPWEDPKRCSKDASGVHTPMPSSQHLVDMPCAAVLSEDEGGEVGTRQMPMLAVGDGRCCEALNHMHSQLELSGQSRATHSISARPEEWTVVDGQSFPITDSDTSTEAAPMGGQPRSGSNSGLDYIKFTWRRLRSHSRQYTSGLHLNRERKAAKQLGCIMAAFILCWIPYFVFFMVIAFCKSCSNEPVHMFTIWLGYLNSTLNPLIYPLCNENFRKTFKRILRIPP
T1 sequence (Q9JI35 whole entry): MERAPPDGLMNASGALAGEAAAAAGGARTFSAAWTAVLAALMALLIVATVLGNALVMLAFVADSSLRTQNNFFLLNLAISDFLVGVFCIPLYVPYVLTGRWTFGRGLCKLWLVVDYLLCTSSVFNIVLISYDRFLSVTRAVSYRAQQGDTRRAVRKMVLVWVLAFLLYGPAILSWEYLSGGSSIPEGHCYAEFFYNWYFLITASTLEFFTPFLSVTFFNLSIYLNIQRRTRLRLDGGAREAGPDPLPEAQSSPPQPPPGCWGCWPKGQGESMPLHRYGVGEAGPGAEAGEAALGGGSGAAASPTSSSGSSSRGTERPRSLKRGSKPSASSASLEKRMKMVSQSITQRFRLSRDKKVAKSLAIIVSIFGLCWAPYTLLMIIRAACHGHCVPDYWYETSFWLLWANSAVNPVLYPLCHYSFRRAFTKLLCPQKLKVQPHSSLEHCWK
Chain of Histamine H3 receptor (Cavia porcellus) (Q9JI35 whole entry): as above

inhibition (Histamine H1 receptor)	Kb (Histamine H3 receptor [1])	Ki (Histamine H3 receptor [2])	ED50 [3]	SMILES	inhibition [4]	ED50 (Cavia porcellus)
1%	3.98 nM	10 nM	3 mg/kg	O=S(=O)(NCCCCc1c[nH]cn1)c1ccc(C(F)(F)F)cc1		
1%	10 nM	24.3 nM		O=S(=O)(NCCCCCc1c[nH]cn1)c1ccc(OC(F)(F)F)cc1		
30%		45.5 nM		CC(C)(C)c1ccc(S(=O)(=O)NCCCc2c[nH]cn2)cc1		
		550 nM		O=S(=O)(NCCCc1cnc[nH]1)c1cccs1		
25%	7.94 nM	5.5 nM	2.7 mg/kg	O=[N+]([O-])c1ccc(S(=O)(=O)NCCCCCc2c[nH]cn2)cc1		
	7.94 nM	2.5 nM		O=S(=O)(c1ccc(Cl)cc1)N(CCCCc1c[nH]cn1)CCCCn1ccnc1		
45%	15.8 nM	24 nM	3 mg/kg	O=S(=O)(c1ccc(Cl)cc1)N(CCCCc1c[nH]cn1)Cc1ccc(Cl)cc1		
14%	10 nM	5 nM		CC(C)(C)c1ccc(S(=O)(=O)NCCCCCc2c[nH]cn2)cc1	40%	
32%	15.8 nM	16.5 nM	3 mg/kg	CC(C)(C)c1ccc(S(=O)(=O)NCCCCc2c[nH]cn2)cc1		
24%				O=[N+]([O-])c1ccc(S(=O)(=O)NCCCCc2c[nH]cn2)cc1		inactive
	63.1 nM	22 nM		CC(C)S(=O)(=O)NCCCCc1cnc[nH]1		
36%		93 nM		O=[N+]([O-])c1ccc(S(=O)(=O)NCCCc2c[nH]cn2)cc1		
	20 nM	16.5 nM		O=[N+]([O-])c1ccc(S(=O)(=O)NCCCCc2cnc[nH]2)cc1		
	10 nM	7 nM		O=S(=O)(NCCCCc1c[nH]cn1)c1ccc(OC(F)(F)F)cc1		inactive
21%		380 nM		O=S(=O)(NCCCc1c[nH]cn1)c1ccc(Cl)cc1		
				Cc1ccc(S(=O)(=O)NCCCCc2c[nH]cn2)cc1	16%	
		42 nM		O=[N+]([O-])c1ccccc1CS(=O)(=O)NCCCCc1cnc[nH]1		

SMILES	inhibition (Histamine H1 receptor)	Kb (Histamine H3 receptor [1])	Ki (Histamine H3 receptor [2])	ED50 [3]	inhibition [4]	ED50 (Cavia porcellus)
CN(CCCCc1c[nH]cn1)S(=O)(=O)c1ccc(Cl)cc1	32%	5.01 nM	4 nM		43%	
O=S(=O)(NCCCCc1cnc[nH]1)c1ccc(Cl)cc1		12.6 nM	9 nM			
O=S(=O)(NCCCCc1cnc[nH]1)c1cccs1			45 nM			
Cc1ccc(S(=O)(=O)NCCCCc2cnc[nH]2)cc1		25.1 nM	17 nM			
O=S(=O)(NCCCCc1c[nH]cn1)c1ccc(F)cc1	19%	158 nM	20.5 nM			
O=S(=O)(NCCCCc1c[nH]cn1)c1ccccc1	5%					inactive
Cn1cc[n+](S(=O)(=O)NCCCCc2c[nH]cn2)c1			43 nM			
O=S(=O)(NCCCCc1c[nH]cn1)c1cccc(Cl)c1		50.1 nM	8.5 nM		8%	
O=S(=O)(NCCCCCc1c[nH]cn1)c1ccc(Cl)cc1	37%			3 mg/kg		
O=S(=O)(NCCCCc1cnc[nH]1)c1ccccc1		31.6 nM	10.5 nM			
O=S(=O)(NCCCCCc1c[nH]cn1)c1ccccc1	19%	63.1 nM	24.5 nM			
Nc1ccc(S(=O)(=O)NCCCCc2c[nH]cn2)cc1			99 nM			
O=S(=O)(NCCCCc1c[nH]cn1)c1ccc(Cl)cc1	48%			2.2 mg/kg		
O=S(=O)(Cc1ccccc1)NCCCCc1c[nH]cn1	3%	31.6 nM	6 nM		17%	
COc1ccc(S(=O)(=O)NCCCCc2cnc[nH]2)cc1			51 nM			
O=S(=O)(NCCCCCc1cnc[nH]1)c1ccc(Cl)cc1		100 nM	11.5 nM			
